Assay results: US9528143B2, “Tracer reagents that enhance reaction-product analysis” (Sigma-Aldrich Co. LLC, priority 1999, dated 2016)

How the values were obtained:
[1] = system: restriction enzymes; test: Restriction digest of NdeI-cut pUC19 with and without dye, agarose gel; type: biochemical; settings: crude dye, all enzymes tested with the exception of KpnI, FIG. 17
Method: The effectiveness of restriction enzymes in cutting target DNA when a dye is present in the reaction mixture was evaluated. A variety of restriction enzymes were assayed for the detrimental effect of adding Amaranth (No. 31, Table 2) to a restriction digest as assayed by agarose gel electrophoresis. NdeI-cut pUC19 plasmid was prepared. This linearized plasmid was then digested with one of several restriction enzymes which normally cut pUC19 at a polylinker site. Thus, each enzyme would be expected to yield a product of similar sizes (ranging from 212 to 263 bp). The restriction enzyme digests were performed in the presence, or absence, of Amaranth dye, and at various concentrations of the enzyme. Column 1 (the leftmost column) contains 100 bp molecular weight ladders. Columns 2-4 contains cleavage products from sequential 5-fold dilutions of the restriction enzymes in the presence of dye. Columns 5-7 are as columns 2-4 but without dye. Columns 2 and 5 contained the restriction enzyme at 1/10th the suppliers concentration (i.e. the enzyme was considered a 10× concentration). The buffers used for the digests were as recommended by the supplier. The enzymes used are listed along the right side of the gel. The relative susceptibility of the enzyme to the dyes' presence is reported next to the enzyme. The sizes of the small bands in the electrophoresis runs range from 212 to 263 bp. […]

[2] = molecular target: T1, Taq DNA polymerase (Thermus aquaticus, UniProt P19821); test: PCR yield (TCA precipitation) versus dye concentration, purity and counterion; type: biochemical; settings: for PCR toxicity by counterion: FIGS. 12A and 12B
T1 construct: purchased Sigma Chemical Co., St. Louis, Mo
T1 sequence (P19821 whole entry): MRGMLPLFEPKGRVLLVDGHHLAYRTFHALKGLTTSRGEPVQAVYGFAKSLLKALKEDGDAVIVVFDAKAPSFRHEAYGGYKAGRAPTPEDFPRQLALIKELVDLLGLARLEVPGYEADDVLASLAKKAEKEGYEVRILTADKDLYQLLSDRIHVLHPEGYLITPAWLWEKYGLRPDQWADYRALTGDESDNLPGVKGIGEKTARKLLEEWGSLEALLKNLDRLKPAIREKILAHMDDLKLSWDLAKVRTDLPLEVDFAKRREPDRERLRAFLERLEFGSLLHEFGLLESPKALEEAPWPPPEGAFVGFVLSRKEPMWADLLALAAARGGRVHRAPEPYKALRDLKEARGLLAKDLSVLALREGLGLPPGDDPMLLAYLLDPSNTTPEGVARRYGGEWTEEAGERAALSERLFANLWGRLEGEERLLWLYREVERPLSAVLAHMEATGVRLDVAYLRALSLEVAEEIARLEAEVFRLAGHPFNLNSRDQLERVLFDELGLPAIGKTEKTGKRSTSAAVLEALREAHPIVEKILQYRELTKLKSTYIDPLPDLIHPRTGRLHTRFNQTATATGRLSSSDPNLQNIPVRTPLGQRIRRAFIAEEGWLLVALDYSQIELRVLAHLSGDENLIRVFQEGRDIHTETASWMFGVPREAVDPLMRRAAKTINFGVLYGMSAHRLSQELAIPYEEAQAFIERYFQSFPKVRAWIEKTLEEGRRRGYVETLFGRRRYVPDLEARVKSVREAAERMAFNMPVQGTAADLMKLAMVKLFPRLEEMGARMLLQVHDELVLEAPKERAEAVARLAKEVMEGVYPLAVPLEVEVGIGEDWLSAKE
Method: The dyes that survived these preceding tests were included in a PCR toxicity study. The dyes were added to PCR reactions at concentrations considered adequate for product performance. Enough of a 2× PCR master mix consisting of Taq DNA polymerase, 0.1 u/μl (Sigma Chemical Co., St. Louis, Mo.), PCR buffer (2×) (Sigma), dNTP's (200 μM each) (Sigma), α^32PdCTP (Amersham USA, Piscataway, N.J.), target DNA (lambda, 2 ng/μl) (Sigma) and primers (Perkin-Elmer 500 bp control, 2 μM) (Perkin-Elmer, Norwalk, Conn.) was prepared to accommodate all 11 remaining dyes plus three no dye controls. Ten μl of the 2× master mix was dispensed into reaction tubes followed by addition of 10 μl of aqueous darkly colored dye solutions or water (controls). The PCR cycling protocol was 20 cycles of 94/55/72° C. at one minute each. 20 μl of quench solution ([…] calf thymus DNA, 20 mM EDTA) was added followed by precipitation with 40 μl 40% trichloroacetic acid (TCA)/4% sodium pyrophosphate (NaPPi). The reactions were filtered on glass fiber filters, washed with 5% TCA/2% NaPPi and counted by scintillation methods. This quench/precipitation procedure will henceforth be referred to as “TCA precipitation”. […] The dyes that inhibited PCR were dropped from consideration (FIG. 6, PCR Tox, Table 2, those marked under “PCR”). […] Per cycle yield was calculated assuming the overall yield was the per cycle yield raised to the 20th power (FIG. 7). In FIG. 7, T1, T2, and T3 represent Taq controls (no dye) as in block and precipitation, numerals are dye number. Per cycle yield is calculated assuming […] where y is the 20 cycle yield (measured) and y1 is the per cycle yield. Table 3 summarizes the results as graphically depicted in FIG. 7 for each of dyes 23, 24, 25, 26, 31, and 39.
On the basis of performance to this point, the remaining dyes were considered substantially equivalent as tracer candidates. Acid violet 5 (number 39, Table 2) was chosen as a possible finalist candidate. Using this dye in a reaction mix at an absorbance of 10 (at its absorbance maximum of 527 nm) a PCR reaction was performed. […] This was considered unacceptable, but was overcome by further development efforts.
In general, the available dyes, as well as those investigated, are derived from unrelated applications. That is, many are used as fabric dyes, food colorings, biological stains etc. As such, they are available in various states of purity. In the case of the finalists, they all had purities of 80% or less, as determined by the product labels. In further experiments, PCR yields (determined by TCA precipitation) in reactions containing various concentrations of acid violet 5 (determined by A527) were compared before and after purification of the crude dye by reverse phase desalting. […] Since reversed phase desalting is not an attractive method for large scale dye purification, acid precipitation followed by ammonium hydroxide dissolution/evaporation to produce the ammonium dye was investigated. This procedure should result in an essentially salt free product. These procedures (reversed phase desalting and acid/ammonium hydroxide) were carried out for acid red 1 (No. 26, Table 2) and acid violet 5 (No. 39). […] The dyes were converted to their magnesium salts to further characterize the effect of counterion identity. This was accomplished by addition of magnesium chloride (excess) to a solution of the crude dye. The magnesium dye that immediately precipitated was recrystallized from water. […] In analogy with the magnesium salts, the calcium and zinc salts of acid red 1 were prepared to investigate whether the effect was divalent vs. monovalent cation or cation identity specific.

[3] = molecular target: Taq polymerase (Thermus aquaticus, UniProt P19821); settings: Hoppe et al., BioTechniques 12:679-680 (1992); cited from earlier work
Sequence of Taq polymerase (P19821 whole entry): as above

Molecule | PCR toxicity by counterion [2] | compatibility with Taq [3] | other results
O=S(=O)([O-])c1ccc2c(N=Nc3ccc(S(=O)(=O)[O-])c4ccccc34)c(O)c(S(=O)(=O)[O-])cc2c1.[Na+].[Na+].[Na+] [Dye 31, Amaranth] | – | – | effect of dye on restriction enzyme digests [1]: relatively inert
CC(=O)Nc1ccc(N=Nc2c(S(=O)(=O)[O-])cc3cc(S(=O)(=O)[O-])cc(NS(=O)(=O)c4ccc(C)cc4)c3c2O)cc1.[Na+].[Na+] [Dye 39, Acid Violet 5] | – | – | loss in PCR product yield ([2]; dye in reaction mix at absorbance of 10 at 527 nm, relative to same reaction without dye, FIG. 10): ≥ 50%
CC(=O)Nc1cc(S(=O)(=O)[O-])cc2cc(S(=O)(=O)[O-])c(N=Nc3ccccc3)c(O)c12.[Na+].[Na+] [acid red 1 Mg salt, acid red 1] | much less toxic to PCR than either the sodium or ammonium salts | – | PCR toxicity of magnesium vs calcium and zinc salts ([2]; FIG. 12C): least toxic
CC(=O)Nc1cc(S(=O)(=O)[O-])cc2cc(S(=O)(=O)[O-])c(N=Nc3ccccc3)c(O)c12.[Na+].[Na+] [acid red 1 ammonium, acid red 1] | more PCR toxic than the sodium | – | –
Cc1cc(C2(c3ccc(O)c(C)c3)OS(=O)(=O)c3ccccc32)ccc1O [cresol red] | – | compatible with Taq | –
OC[C@H]1O[C@@](CO)(O[C@H]2O[C@H](CO)[C@@H](O)[C@H](O)[C@H]2O)[C@@H](O)[C@@H]1O [sucrose] | – | compatible with Taq | –
O=C([O-])C1=NN(c2ccc(S(=O)(=O)[O-])cc2)C(=O)C1N=Nc1ccc(S(=O)(=O)[O-])cc1.[Na+].[Na+].[Na+] (centres unmarked) [tartrazine] | – | compatible with Taq | –
acid violet 5 [acid violet 5 Mg salt] | much less toxic to PCR than either the sodium or ammonium salts | – | –
acid violet 5 [acid violet 5 ammonium] | more PCR toxic than the sodium | – | –
acid violet 5 [acid violet 5 desalted] | – | – | susceptibility of PCR product yield to dye concentration ([2]; desalted relative to crude compound, FIG. 11): much less susceptible to dye concentration
